Data on 6 molecules can be found in patent publication US11512079B2, “Heterocycle substituted pyridine derivative antifungal agents” (Amplyx Pharmaceuticals, Inc., priority 2017, dated 2022).

The structures appear in SMILES notation. Values after ≈ are worked out from the molar mass of the structure shown. Bounds are passed on as bounds.

What all share (assay type): cell-based
Experiment [1] has as its system Aspergillus fumigatus MYA3626. As to the kind of experiment: In vitro antifungal assay (Example IX), microdilution broth, MEC. To be noted: minimum effective concentration (shortening of hyphae), 35° C., 40-48 h, RPMI1640. In outline:
(§1)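 Read-out is the minimum effective concentration: lowest compound level causing shorter hyphae than in DMSO controls, echinocandin-style. Broth microdilution used conidia or spores harvested from agar plates, cleared of mycelium and clumps, at a final 1-2×10^4 spores/mL in RPMI1640.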

Experiment [2] relates to Rhizomucor pusillus 46342. The experiment is described as above. The note with it: minimum effective concentration (shortening of hyphae), 35° C., 40-48 h, RPMI1640. The method, boiled down:
as §1

For the next experiment, the system named is Candida albicans 90028. As to the kind of experiment: In vitro antifungal assay (Example IX), microdilution broth, MIC. To be noted: minimum inhibitory concentration (≥50% inhibition), 35° C., 40-48 h, RPMI1640. In outline: (§2)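 Yeast inocula (2.5×10^3 cells/mL, RPMI1640) were exposed to twofold compound series reaching 2-0.0019 μg/mL final, per CLSI yeast methodology. Incubation at 35° C. ran 40-48 h for Candida albicans 90028 and 72 h for Cryptococcus neoformans H99. MIC endpoints were confirmed by absorbance at 600 nm.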
On the technique in general: In broth dilution the organism is exposed to a series of concentrations in liquid medium.

The test system of experiment [3] is Cryptococcus neoformans H99. The experiment is described as above. The note with it: minimum inhibitory concentration (≥50% inhibition), 35° C., 72 h, RPMI1640. The method, boiled down:
as §2

Another experiment concerns Cryptococcus gattii. The experiment is described as above. To be noted: minimum inhibitory concentration (≥50% inhibition), 35° C., 72 h (Cryptococcus), RPMI1640. The method, boiled down:
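MIC was determined from OD600 after 72 h at 35 °C for Cryptococcus, in RPMI1640 inoculated at 2.5×10^3 cells/mL. Compounds were tested as a 2-fold series from 2 to 0.0019 μg/mL final, added from DMSO intermediates at a 100-fold dilution.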

The minimal effective concentration is the smallest amount tested that counted as effective. High values mean weaker potency, low ones greater potency. As a reminder, the MIC is the lowest concentration found to suppress growth. A higher MIC goes with a less susceptible organism. With `Nc1ncccc1-c1cc(Cc2ccc(Oc3ccc(F)cn3)cc2)no1` [compound 246, 3-(3-(4-((5-fluoropyridin-2-yl)oxy)benzyl)isoxazol-5-yl)pyridin-2-amine], the minimal effective concentration in experiment [1] was in the range of 0.01 to 0.1 µg/mL; in experiment [2], 0.1 to 1 µg/mL. Besides, the MIC in the experiment with Candida albicans 90028 fell in the range of 0.1 to 1 µg/mL (≈ 0.276 to 2.76 µM); in experiment [3], 0.01 to 0.1 µg/mL (≈ 0.0276 to 0.276 µM); in the experiment with Cryptococcus gattii it was 0.1 to 1 µg/mL (≈ 0.276 to 2.76 µM).
In the case of `Nc1ncccc1-c1cc(Cc2cnc(Nc3ccccc3F)c(F)c2)no1` [compound 250, 5-((5-(2-aminopyridin-3-yl)isoxazol-3-yl)methyl)-3-fluoro-N-(2-fluorophenyl)pyridin-2-amine], the figures for the minimal effective concentration in experiment [1] and in experiment [2] were 0.01 to 0.1 µg/mL and 0.1 to 1 µg/mL, respectively. Besides, the MIC was 0.01 to 0.1 µg/mL (≈ 0.0264 to 0.264 µM) with Candida albicans 90028, 0.01 to 0.1 µg/mL (≈ 0.0264 to 0.264 µM) in experiment [3] and 0.1 to 1 µg/mL (≈ 0.264 to 2.64 µM) against Cryptococcus gattii.
On to `Nc1ncccc1-c1cc(Cc2cnc(Nc3c(F)cccc3F)c(F)c2)no1` [compound 253, 5-((5-(2-aminopyridin-3-yl)isoxazol-3-yl)methyl)-N-(2,6-difluorophenyl)-3-fluoropyridin-2-amine], for which the minimal effective concentration is 0.1 to 1 µg/mL in experiment [1] and greater than 1 µg/mL in experiment [2]. Besides, the MIC (with Candida albicans 90028; in experiment [3]; against Cryptococcus gattii) was 0.1 to 1 µg/mL (≈ 0.252 to 2.52 µM) throughout.
Take `Nc1ncccc1-c1cc(Cc2cnc(OCc3ccccc3)c(F)c2)no1` [compound 257, 3-(3-((6-(benzyloxy)-5-fluoropyridin-3-yl)methyl)isoxazol-5-yl)pyridin-2-amine]: the minimal effective concentration is 0.01 to 0.1 µg/mL in experiment [1] and 0.1 to 1 µg/mL in experiment [2]. Besides, the minimal inhibitory concentration (MIC) is 0.01 to 0.1 µg/mL (≈ 0.0266 to 0.266 µM) against Candida albicans 90028, 0.1 to 1 µg/mL (≈ 0.266 to 2.66 µM) in experiment [3] and greater than 1 µg/mL in the experiment on Cryptococcus gattii.
Turning to `Nc1ncccc1-c1cc(Cc2ccc(Oc3cccc(F)n3)c(F)c2)no1` [compound 258, 3-(3-(3-fluoro-4-((6-fluoropyridin-2-yl)oxy)benzyl)isoxazol-5-yl)pyridin-2-amine], the values for the minimal effective concentration in experiment [1] and in experiment [2] were 0.01 to 0.1 µg/mL and 0.1 to 1 µg/mL, respectively. Moreover, the results for the MIC (against Candida albicans 90028; in experiment [3]; in the experiment with Cryptococcus gattii) were 0.1 to 1 µg/mL (≈ 0.263 to 2.63 µM), 0.01 to 0.1 µg/mL (≈ 0.0263 to 0.263 µM) and 0.1 to 1 µg/mL (≈ 0.263 to 2.63 µM), respectively.
With `Nc1ncccc1-c1cc(Cc2ccc(Cc3cc(F)nc(F)c3)cc2)no1` [compound 261, 3-(3-(4-((2,6-difluoropyridin-4-yl)methyl)benzyl)isoxazol-5-yl)pyridin-2-amine], the minimal effective concentration in experiment [1] and in experiment [2] was 0.1 to 1 µg/mL each time. Besides, the minimum inhibitory concentration (MIC) (with Candida albicans 90028; in experiment [3]; against Cryptococcus gattii) was 0.1 to 1 µg/mL (≈ 0.264 to 2.64 µM) each time.
